Source: patent US10829796B2, “Bacteria identification and antimicrobial susceptibility test” (priority 2015, dated 2020)

Experiments:
Assay in all cases: Antibiotic susceptibility testing (colour of media), spiked milk
Assay type in all cases: cell-based
Escherichia coli = details: 37° C., plate configuration #3
Procedure: (§1) Tables 36 to 38 which follow show further examples of antibiotic susceptibility testing performed in accordance with the present invention. Table 36, antibiotic susceptibility testing of Staphylococcus aureus in Mueller Hinton and Tryptic Soy Broth at pre-incubation and at between 15-24 h. Tables 37 and 38, antimicrobial susceptibility testing of Streptococcus uberis and E. coli with the addition of gram negative specific antibiotic aztreonam. Tables 38 to 49 show further examples of antibiotic susceptibility testing and the outcomes are aligned with the described inventions.

Staphylococcus aureus = details: for Colour of media: bacteria sample 5c; for Colour of media in each well: T~16 h, 37° C., plate configuration #3
Procedure: as §1

Streptococcus uberis = details: T~16 h, 37° C., bacteria samples 6d, plate configuration #3
Procedure: as §1

Compound: CC1(C)S[C@@H]2[C@H](NC(=O)Cc3ccccc3)C(=O)N2[C@H]1C(=O)O [benzyl penicillin]
- Colour of media in each well (Escherichia coli; T~16 h, bacteria samples 4c, Benzyl Penicillin or Cloxacillin 1 μg/ml): yellow
- Colour of media in each well (Escherichia coli; T~16 h, bacteria samples 4c, Benzyl Penicillin or Cloxacillin 10 μg/ml): yellow
- Colour of media in each well (Escherichia coli; T~16 h, bacteria samples 4c, Benzyl Penicillin or Cloxacillin 100 μg/ml): red
- Colour of media in each well (Escherichia coli; T~16 h, bacteria samples 4c, Benzyl Penicillin or Cloxacillin 1,000 μg/ml): red
- Colour of media in each well (Escherichia coli; T~16 h, bacteria samples 4c, Benzyl Penicillin or Cloxacillin 10,000 μg/ml): red
- Colour of media in each well (Escherichia coli; t~16 h, bacteria samples 4e, Benzyl Penicillin or Cloxacillin 1 μg/ml): yellow
- Colour of media in each well (Escherichia coli; t~16 h, bacteria samples 4e, Benzyl Penicillin or Cloxacillin 10 μg/ml): yellow
- Colour of media in each well (Escherichia coli; t~16 h, bacteria samples 4e, Benzyl Penicillin or Cloxacillin 100 μg/ml): Red
- Colour of media in each well (Escherichia coli; t~16 h, bacteria samples 4e, Benzyl Penicillin or Cloxacillin 1,000 μg/ml): Red
- Colour of media in each well (Escherichia coli; t~16 h, bacteria samples 4e, Benzyl Penicillin or Cloxacillin 10,000 μg/ml): Red
- Colour of media (Staphylococcus aureus; T = 0 hours (pre incubation), drug 0.01 μg/ml, Mueller Hinton (70 ul composition 26)): red
- Colour of media (Staphylococcus aureus; T = 0 hours (pre incubation), drug 0.01 μg/ml, Tryptic Soy (70 ul composition 2c)): red
- Colour of media (Staphylococcus aureus; T = 0 hours (pre incubation), drug 0.01 μg/ml, Tryptic Soy, wells H (20 ul composition 2c)): red
- Colour of media (Staphylococcus aureus; T = 0 hours (pre incubation), drug 0.05 μg/ml, Mueller Hinton (70 ul composition 26)): red
- Colour of media (Staphylococcus aureus; T = 0 hours (pre incubation), drug 0.05 μg/ml, Tryptic Soy (70 ul composition 2c)): red
- Colour of media (Staphylococcus aureus; T = 0 hours (pre incubation), drug 0.05 μg/ml, Tryptic Soy, wells H (20 ul composition 2c)): red
- Colour of media (Staphylococcus aureus; T = 0 hours (pre incubation), drug 0.1 μg/ml, Mueller Hinton (70 ul composition 26)): red
- Colour of media (Staphylococcus aureus; T = 0 hours (pre incubation), drug 0.1 μg/ml, Tryptic Soy (70 ul composition 2c)): red
- Colour of media (Staphylococcus aureus; T = 0 hours (pre incubation), drug 0.1 μg/ml, Tryptic Soy, wells H (20 ul composition 2c)): red
- Colour of media (Staphylococcus aureus; T = 0 hours (pre incubation), drug 0.5 μg/ml, Mueller Hinton (70 ul composition 26)): red
- Colour of media (Staphylococcus aureus; T = 0 hours (pre incubation), drug 0.5 μg/ml, Tryptic Soy (70 ul composition 2c)): red
- Colour of media (Staphylococcus aureus; T = 0 hours (pre incubation), drug 0.5 μg/ml, Tryptic Soy, wells H (20 ul composition 2c)): red
- Colour of media (Staphylococcus aureus; T = 0 hours (pre incubation), drug 1 μg/ml, Mueller Hinton (70 ul composition 26)): red
- Colour of media (Staphylococcus aureus; T = 0 hours (pre incubation), drug 1 μg/ml, Tryptic Soy (70 ul composition 2c)): red
- Colour of media (Staphylococcus aureus; T = 0 hours (pre incubation), drug 1 μg/ml, Tryptic Soy, wells H (20 ul composition 2c)): red
- Colour of media (Staphylococcus aureus; T = 0 hours (pre incubation), drug 5 μg/ml, Mueller Hinton (70 ul composition 26)): red
- Colour of media (Staphylococcus aureus; T = 0 hours (pre incubation), drug 5 μg/ml, Tryptic Soy (70 ul composition 2c)): red
- Colour of media (Staphylococcus aureus; T = 0 hours (pre incubation), drug 5 μg/ml, Tryptic Soy, wells H (20 ul composition 2c)): red
- Colour of media (Staphylococcus aureus; T = 0 hours (pre incubation), drug 10 μg/ml, Mueller Hinton (70 ul composition 26)): red
- Colour of media (Staphylococcus aureus; T = 0 hours (pre incubation), drug 10 μg/ml, Tryptic Soy (70 ul composition 2c)): red
- Colour of media (Staphylococcus aureus; T = 0 hours (pre incubation), drug 10 μg/ml, Tryptic Soy, wells H (20 ul composition 2c)): red
- Colour of media (Staphylococcus aureus; T = 0 hours (pre incubation), drug 50 μg/ml, Mueller Hinton (70 ul composition 26)): red
- Colour of media (Staphylococcus aureus; T = 0 hours (pre incubation), drug 50 μg/ml, Tryptic Soy (70 ul composition 2c)): red
- Colour of media (Staphylococcus aureus; T = 0 hours (pre incubation), drug 50 μg/ml, Tryptic Soy, wells H (20 ul composition 2c)): red
- Colour of media (Staphylococcus aureus; T = 0 hours (pre incubation), drug 100 μg/ml, Mueller Hinton (70 ul composition 26)): red
- Colour of media (Staphylococcus aureus; T = 0 hours (pre incubation), drug 100 μg/ml, Tryptic Soy (70 ul composition 2c)): red
- Colour of media (Staphylococcus aureus; T = 0 hours (pre incubation), drug 100 μg/ml, Tryptic Soy, wells H (20 ul composition 2c)): red
- Colour of media (Staphylococcus aureus; T = 0 hours (pre incubation), drug 500 μg/ml, Mueller Hinton (70 ul composition 26)): red
- Colour of media (Staphylococcus aureus; T = 0 hours (pre incubation), drug 500 μg/ml, Tryptic Soy (70 ul composition 2c)): red
- Colour of media (Staphylococcus aureus; T = 0 hours (pre incubation), drug 500 μg/ml, Tryptic Soy, wells H (20 ul composition 2c)): red
- Colour of media (Staphylococcus aureus; T = 15-24 h at 35° C., drug 0.01 μg/ml, Mueller Hinton (70 ul composition 26)): red
- Colour of media (Staphylococcus aureus; T = 15-24 h at 35° C., drug 0.01 μg/ml, Tryptic Soy (70 ul composition 2c)): yellow
- Colour of media (Staphylococcus aureus; T = 15-24 h at 35° C., drug 0.01 μg/ml, Tryptic Soy, wells H (20 ul composition 2c)): red
- Colour of media (Staphylococcus aureus; T = 15-24 h at 35° C., drug 0.05 μg/ml, Mueller Hinton (70 ul composition 26)): red
- Colour of media (Staphylococcus aureus; T = 15-24 h at 35° C., drug 0.05 μg/ml, Tryptic Soy (70 ul composition 2c)): red
- Colour of media (Staphylococcus aureus; T = 15-24 h at 35° C., drug 0.05 μg/ml, Tryptic Soy, wells H (20 ul composition 2c)): red
- Colour of media (Staphylococcus aureus; T = 15-24 h at 35° C., drug 0.1 μg/ml, Mueller Hinton (70 ul composition 26)): red
- Colour of media (Staphylococcus aureus; T = 15-24 h at 35° C., drug 0.1 μg/ml, Tryptic Soy (70 ul composition 2c)): red
- Colour of media (Staphylococcus aureus; T = 15-24 h at 35° C., drug 0.1 μg/ml, Tryptic Soy, wells H (20 ul composition 2c)): red
- Colour of media (Staphylococcus aureus; T = 15-24 h at 35° C., drug 0.5 μg/ml, Mueller Hinton (70 ul composition 26)): red
- Colour of media (Staphylococcus aureus; T = 15-24 h at 35° C., drug 0.5 μg/ml, Tryptic Soy (70 ul composition 2c)): red
- Colour of media (Staphylococcus aureus; T = 15-24 h at 35° C., drug 0.5 μg/ml, Tryptic Soy, wells H (20 ul composition 2c)): red
- Colour of media (Staphylococcus aureus; T = 15-24 h at 35° C., drug 1 μg/ml, Mueller Hinton (70 ul composition 26)): red
- Colour of media (Staphylococcus aureus; T = 15-24 h at 35° C., drug 1 μg/ml, Tryptic Soy (70 ul composition 2c)): red
- Colour of media (Staphylococcus aureus; T = 15-24 h at 35° C., drug 1 μg/ml, Tryptic Soy, wells H (20 ul composition 2c)): red
- Colour of media (Staphylococcus aureus; T = 15-24 h at 35° C., drug 5 μg/ml, Mueller Hinton (70 ul composition 26)): red
- Colour of media (Staphylococcus aureus; T = 15-24 h at 35° C., drug 5 μg/ml, Tryptic Soy (70 ul composition 2c)): red
- Colour of media (Staphylococcus aureus; T = 15-24 h at 35° C., drug 5 μg/ml, Tryptic Soy, wells H (20 ul composition 2c)): red
- Colour of media (Staphylococcus aureus; T = 15-24 h at 35° C., drug 10 μg/ml, Mueller Hinton (70 ul composition 26)): red
- Colour of media (Staphylococcus aureus; T = 15-24 h at 35° C., drug 10 μg/ml, Tryptic Soy (70 ul composition 2c)): red
- Colour of media (Staphylococcus aureus; T = 15-24 h at 35° C., drug 10 μg/ml, Tryptic Soy, wells H (20 ul composition 2c)): red
- Colour of media (Staphylococcus aureus; T = 15-24 h at 35° C., drug 50 μg/ml, Mueller Hinton (70 ul composition 26)): red
- Colour of media (Staphylococcus aureus; T = 15-24 h at 35° C., drug 50 μg/ml, Tryptic Soy (70 ul composition 2c)): red
- Colour of media (Staphylococcus aureus; T = 15-24 h at 35° C., drug 50 μg/ml, Tryptic Soy, wells H (20 ul composition 2c)): red
- Colour of media (Staphylococcus aureus; T = 15-24 h at 35° C., drug 100 μg/ml, Mueller Hinton (70 ul composition 26)): red
- Colour of media (Staphylococcus aureus; T = 15-24 h at 35° C., drug 100 μg/ml, Tryptic Soy (70 ul composition 2c)): red
- Colour of media (Staphylococcus aureus; T = 15-24 h at 35° C., drug 100 μg/ml, Tryptic Soy, wells H (20 ul composition 2c)): red
- Colour of media (Staphylococcus aureus; T = 15-24 h at 35° C., drug 500 μg/ml, Mueller Hinton (70 ul composition 26)): red
- Colour of media (Staphylococcus aureus; T = 15-24 h at 35° C., drug 500 μg/ml, Tryptic Soy (70 ul composition 2c)): red
- Colour of media (Staphylococcus aureus; T = 15-24 h at 35° C., drug 500 μg/ml, Tryptic Soy, wells H (20 ul composition 2c)): red
- Colour of media in each well (Staphylococcus aureus; bacteria samples 5c, Benzyl Penicillin or Cloxacillin 1 μg/ml): red
- Colour of media in each well (Staphylococcus aureus; bacteria samples 5c, Benzyl Penicillin or Cloxacillin 10 μg/ml): red
- Colour of media in each well (Staphylococcus aureus; bacteria samples 5c, Benzyl Penicillin or Cloxacillin 100 μg/ml): red
- Colour of media in each well (Staphylococcus aureus; bacteria samples 5c, Benzyl Penicillin or Cloxacillin 1,000 μg/ml): red
- Colour of media in each well (Staphylococcus aureus; bacteria samples 5c, Benzyl Penicillin or Cloxacillin 10,000 μg/ml): red
- Colour of media in each well (Staphylococcus aureus; bacteria samples 5e, Benzyl Penicillin or Cloxacillin 1 μg/ml): red
- Colour of media in each well (Staphylococcus aureus; bacteria samples 5e, Benzyl Penicillin or Cloxacillin 10 μg/ml): red
- Colour of media in each well (Staphylococcus aureus; bacteria samples 5e, Benzyl Penicillin or Cloxacillin 100 μg/ml): red
- Colour of media in each well (Staphylococcus aureus; bacteria samples 5e, Benzyl Penicillin or Cloxacillin 1,000 μg/ml): red
- Colour of media in each well (Staphylococcus aureus; bacteria samples 5e, Benzyl Penicillin or Cloxacillin 10,000 μg/ml): red
- Colour of media in each well (Streptococcus uberis; Benzyl Penicillin or Cloxacillin 1 μg/ml): red
- Colour of media in each well (Streptococcus uberis; Benzyl Penicillin or Cloxacillin 10 μg/ml): red
- Colour of media in each well (Streptococcus uberis; Benzyl Penicillin or Cloxacillin 100 μg/ml): red
- Colour of media in each well (Streptococcus uberis; Benzyl Penicillin or Cloxacillin 1,000 μg/ml): red
- Colour of media in each well (Streptococcus uberis; Benzyl Penicillin or Cloxacillin 10,000 μg/ml): red
